Laboratory results published in paper PMC10610188, “Structure–Activity Relationship Studies of Chalcones and Diarylpentanoids with Antitumor Activity: Potency and Selectivity Optimization” (Pharmaceuticals, 2023).

Columns and labels:
HCT116 p53^+/+ cells = test: SRB growth inhibition assay in HCT116 p53+/+ cells; type: cell-based, human; conditions: SRB assay, 48 h of treatment
Description: (§1) To study the in vitro antitumor potential of chalcone CM-M345 (1) and diarylpentanoid BP-C4 (2) analogues, the sulforhodamine B (SRB) assay was used to evaluate the antiproliferative activity in human colorectal HCT116 cancer cells. To assess their cytotoxicity toward normal cells, the antiproliferative effect of these compounds was also tested in human fibroblasts HFF-1 cells. In order to confirm if inhibition of proliferation was associated with p53 activation in HCT116 p53^+/+ cells, all compounds were also tested in HCT116 cells in which p53 was knocked out (HCT116 p53^−/−) and the selective index was calculated and compared to the compounds CM-M345 (1) and BP-C4 (2), for which p53-dependent antiproliferative activity was previously reported by our research group (Table 1).
(§2) The colorectal adenocarcinoma HCT116 cells (HCT116 p53^+/+) and its p53-null isogenic derivative (HCT116 p53^−/−) were given by Prof. Vogelstein (The Johns Hopkins Kimmel Cancer Center, Baltimore, USA); the normal human fibroblasts HFF-1 cell lines were from ATCC (Rockville, MD, USA). Human cells were cultured in RPMI-1640 with UltraGlutamine (Lonza, VWR, Portugal) with 10% FBS (Gibco, Alfagene, Portugal) at 37 °C with 5% CO2. The SH-SY5Y cells were cultured in DMEM/F-12 (Lonza) and 10% FBS and 2mM L-glutamine (Gibco). The cells were incubated at 37 °C in a humidified atmosphere of 5% CO2. Mycoplasma was routinely checked using the MycoAlert™ PLUS kit (Lonza). […]

HCT116 p53^−/− cells = test: SRB growth inhibition assay in HCT116 p53-/- cells; type: cell-based, human; conditions: for SI1: Selective index 1: GI50 of HCT116 p53^−/−/GI50 of HCT116 p53^+/+; for GI50: Homo sapiens, HCT-116, SRB assay, 48 h of treatment
Description: as §1, §2

HFF-1 cells = test: SRB growth inhibition assay in normal fibroblasts HFF-1; type: cell-based, human; conditions: for SI2: Selective index 2: GI50 of HFF-1/GI50 of HCT116 p53^+/+; for GI50: Homo sapiens, HFF-1, SRB assay, 48 h of treatment
Description: as §1, §2

| Compound | melting point | GI50 (HCT116 p53^+/+ cells; Homo sapiens, HCT-116, 48 h) | SI1: Selective index 1 (HCT116 p53^−/− cells) | GI50 (HCT116 p53^−/− cells) | SI2: Selective index 2 (HFF-1 cells) | GI50 (HFF-1 cells) | GI50 (HCT116 p53^+/+ cells; Homo sapiens, HCT-116) | GI50 (HCT116 p53^+/+ cells) |
| --- | --- | --- | --- | --- | --- | --- | --- | --- |
| COc1cc(/C=C2\Cc3ccccc3C2=O)cc(OC)c1OC [Compound 3] | 160 to 163 °C | 4.6 ± 0.3 µM | 0.70 | 3.2 ± 0.47 µM | 1.76 | 8.1 ± 0.1 µM |  |  |
| COc1cc(/C=C2\Cc3c(ccc(OC)c3OC)C2=O)cc(OC)c1OC [Compound 4, (E)-2-(3,4,5-trimethoxybenzylidene)-4,5-dimethoxy-2,3-dihydro-1H-inden-1-one] | 165 to 168 °C |  | 0.82 | 3.1 ± 0.22 µM | 1.34 | 5.1 ± 0.9 µM | 3.8 ± 0.32 µM |  |
| COc1cc2c(cc1OC)C(=O)/C(=C/c1cc(OC)c(OC)c(OC)c1)C2 [Compound 5] | 156 to 159 °C | 6.1 ± 0.12 µM | 0.67 | 4.1 ± 0.36 µM | 0.52 | 3.2 ± 0.07 µM |  |  |
| O=C1/C(=C/c2ccc(Cl)cc2)Cc2ccccc21 [Compound 6] | 179 to 181 °C | 21.5 to 30 µM |  | > 30 µM |  | > 30 µM |  | 21.5 ± 1.19 µM |
| COc1ccc2c(c1OC)C/C(=C\c1ccc(Cl)cc1)C2=O [Compound 7, (E)-2-(4-chlorobenzylidene)-4,5-dimethoxy-2,3-dihydro-1H-inden-1-one] | 206 to 209 °C | 7.4 ± 0.56 µM | 0.61 | 4.5 ± 0.13 µM | 0.64 | 4.7 ± 0.5 µM |  |  |
| COc1cc2c(cc1OC)C(=O)/C(=C/c1ccc(Cl)cc1)C2 [Compound 8] |  |  | 0.60 | 4.5 ± 0.28 µM | 0.68 | 5.1 ± 0.9 µM | 7.5 ± 0.45 µM |  |
| COc1cc(/C=C2\CCc3ccccc3C2=O)cc(OC)c1OC [Compound 9] |  | 5.9 ± 1.28 µM | 1.32 | 7.8 ± 0.9 µM | 0.93 | 5.5 ± 0.03 µM |  |  |
| COc1cc2c(cc1OC)C(=O)/C(=C/c1cc(OC)c(OC)c(OC)c1)CC2 [Compound 10, (E)-2-(3,4,5-trimethoxybenzylidene)-6,7-dimethoxy-3,4-dihydronaphthalen-1(2H)-one] | 145 to 147 °C | 6.7 to 8.6 µM | 0.73 | 2.9 ± 0.11 µM | 1.35 | 5.4 ± 0.1 µM |  | 4 ± 0.23 µM |
| COc1cc(/C=C2\COc3ccccc3C2=O)cc(OC)c1OC [Compound 11] | 109 to 111 °C | 6.7 to 8.6 µM | 0.97 | 6.1 ± 1 µM | 1.32 | 8.3 ± 1.4 µM |  | 6.3 ± 2.18 µM |
| COc1cc(/C=C2\CSc3ccccc3C2=O)cc(OC)c1OC [Compound 12, (Z)-3-(3,4,5-trimethoxybenzylidene)thiochroman-4-one] |  | 5.7 ± 0.51 µM |  | 3.9 ± 0.26 µM |  | 6.7 ± 0.4 µM |  |  |
| O=C1/C(=C/c2ccc(Cl)cc2)CCc2ccccc21 [Compound 13] |  | 21.5 to 30 µM |  | > 30 µM |  | > 30 µM |  | > 30 µM |
| COc1cc2c(cc1OC)C(=O)/C(=C/c1ccc(Cl)cc1)CC2 [Compound 14, (E)-2-(4-chlorobenzylidene)-6,7-dimethoxy-3,4-dihydronaphthalen-1(2H)-one] |  | 6.7 ± 0.21 µM |  | 4.3 ± 0.15 µM |  | 7.7 ± 0.2 µM |  |  |
| O=C1/C(=C/c2ccc(Cl)cc2)COc2ccccc21 [Compound 15] |  | 8.6 ± 0.5 µM | 0.62 | 5.29 ± 0.19 µM | 0.49 | 4.25 ± 0.32 µM |  |  |
| O=C1/C(=C/c2ccc(Cl)cc2)CC/C1=C\c1ccc(Cl)cc1 [Compound 18] |  | > 30 µM |  | > 30 µM |  | > 30 µM |  |  |
| O=C1/C(=C/c2ccc(Cl)cc2)CCC/C1=C\c1ccc(Cl)cc1 [Compound 19] |  | 3.1 ± 0.1 µM | 0.95 | 2.95 ± 0.15 µM | 4.55 | 14.1 ± 0.12 µM |  |  |
| COc1cc(/C=C/C(=O)/C=C/c2cc(OC)c(OC)c(OC)c2)cc(OC)c1OC [Compound 21] |  | > 30 µM |  | > 30 µM |  | > 30 µM |  |  |
| COc1cc(/C=C2\CC/C(=C\c3cc(OC)c(OC)c(OC)c3)C2=O)cc(OC)c1OC [Compound 22] |  | 0.09 ± 0.03 µM | 0.78 | 0.07 ± 0.01 µM | 1.50 | 0.135 ± 0.004 µM |  |  |
| COc1cc(/C=C2\CCC/C(=C\c3cc(OC)c(OC)c(OC)c3)C2=O)cc(OC)c1OC [Compound 23] |  | 2.3 ± 0.03 µM | 0.24 | 0.56 ± 0.07 µM | 0.72 | 1.65 ± 0.04 µM |  |  |
| CCCc1c(OC)ccc(C(=O)CCc2cc(OC)c(OC)c(OC)c2)c1O [Compound 29, 1-(2-hydroxy-4-methoxy-3-propylphenyl)-3-(3,4,5-trimethoxyphenyl)propan-1-one] |  | 18.7 ± 2.19 µM | 0.60 | 11.2 ± 5.3 µM | 1.18 | 22.1 ± 7.2 µM |  |  |
| CCCc1c(OC)ccc(C(=O)/C=C/c2ccc(N(C)C)cc2)c1O [Compound 35, (E)-3-(4-(dimethylamino)phenyl)-1-(2-hydroxy-4-methoxy-3-propylphenyl)prop-2-en-1-one] | 126 to 128 °C |  | 1.52 | 16.3 ± 2.6 µM | 1.31 | 14 ± 3.6 µM |  |  |
| CC(C)=CCOc1ccccc1/C=C1\COC/C(=C\c2ccccc2OCC=C(C)C)C1=O [Compound 38, 3,5-bis((E)-2-((3-methylbut-2-en-1-yl)oxy)benzylidene)tetrahydro-4H-pyran-4-one] |  | > 30 µM |  | > 30 µM |  | > 30 µM |  |  |
| COc1cc([C@@H]2c3cc4c(cc3[C@@H](O[C@@H]3O[C@@H]5CO[C@@H](C)O[C@H]5[C@H](O)[C@H]3O)[C@H]3COC(=O)[C@H]23)OCO4)cc(OC)c1O [Etoposide, reference compound] |  | 0.71 µM |  |  |  | 0.35 µM |  |  |
